Test results reported in ChEMBL document CHEMBL1135175, “Synthesis and bioactivities of novel bicyclic thiophenes and 4,5,6,7-tetrahydrothieno[2,3-c]pyridines as inhibitors of tumor necrosis factor-alpha (TNF-alpha) production” (Bioorg Med Chem Lett, 2002).

Columns and labels:
[1] = test system: Rattus norvegicus; experiment: TNF-alpha inhibiting activity by in vivo inhibition of serum TNF production in rat at 50 mg/kg, peroral administration.; format: functional; settings: route oral
[2] = species on record: Rattus norvegicus; experiment: Evaluated for its ability to inhibit LPS stimulated production of TNF-alpha in rat whole blood; format: functional, organism-based
[3] = test system: Rattus norvegicus; experiment: Compound was evaluated for percentage recovery from paw edema in adjuvant-induced arthritic model of rat at a dose of 50 mg/kg; format: functional
[4] = test system: Rattus norvegicus; experiment: Compound was evaluated for percentage recovery from femur weight in adjuvant-induced arthritic model of rat at a dose of 50 mg/kg; format: functional
[5] = test system: Rattus norvegicus; experiment: Compound was evaluated for percentage recovery from GAG in adjuvant-induced arthritic model of rat at a dose of 50 mg/kg; format: functional
[6] = test system: Rattus norvegicus; experiment: Compound was evaluated for percentage recovery from paw edema in adjuvant-induced arthritic model of rat at a dose of 2 mg/kg; format: functional
[7] = test system: Rattus norvegicus; experiment: Compound was evaluated for percentage recovery from GAG in adjuvant-induced arthritic model of rat at a dose of 2 mg/kg; format: functional
[8] = test system: Rattus norvegicus; experiment: Compound was evaluated for percentage recovery from femur weight in adjuvant-induced arthritic model of rat at a dose of 2 mg/kg; format: functional
[9] = test system: Rattus norvegicus; experiment: Compound was evaluated for percentage recovery from femur weight in adjuvant-induced arthritic model of rat at a dose of 10 mg/kg; format: functional, organism-based; parameters: dose 10 mg/kg
[10] = test system: Rattus norvegicus; experiment: Compound was evaluated for percentage recovery from GAG in adjuvant-induced arthritic model of rat at a dose of 10 mg/kg; format: functional, organism-based; parameters: dose 10 mg/kg
[11] = test system: Rattus norvegicus; experiment: Compound was evaluated for percentage recovery from paw edema in adjuvant-induced arthritic model of rat at a dose of 10 mg/kg; format: functional, organism-based; parameters: dose 10 mg/kg
[12] = test system: Rattus norvegicus; experiment: TNF-alpha inhibiting activity was assessed by In vivo inhibition of serum TNF production in rat, at 50 mg/kg, po; format: functional

Compound	inhibition in vivo at 50 mg/kg [1]	IC50 [2]	other results
CCOC(=O)c1c(NC(=O)c2cccnc2)sc2c1CCN(C(C)=O)C2	23.5%	–	–
CCOC(=O)c1c(NC(=O)N(CC)C2CCCCC2)sc2c1CCN(C(C)=O)C2	7.6%	12 µM	–
CCOC(=O)c1c(N(C)C(=O)N(CC)CC)sc2c1CCN(C(C)=O)C2	51.9%	12 µM	–
CCOC(=O)c1c(NC(=O)Nc2cccnc2)sc2c1CCN(C(C)=O)C2	48.7%	13 µM	–
CCCN(CC1CC1)C(=O)Nc1sc2c(c1C(=O)OCC)CCN(C(C)=O)C2	34.8%	1.3 µM	–
CCOC(=O)c1c(NC(=O)NC(Cc2ccccc2)C(=O)OC)sc2c1CCN(C(C)=O)C2 (stereo unspecified)	8.2%	0.9 µM	–
CCCN1CCc2c(sc(NC(=O)C(C)C)c2C(=O)OCC)C1	–	40 µM	–
CCOC(=O)c1c(NC(=O)C(C)C)sc2c1CCSC2	21.2%	34 µM	–
CCOC(=O)c1c(NC(=O)C(C)C)sc2c1CCN(C(=O)c1ccccc1)C2	31.8%	10 µM	–
CCCCC(CC)COC(=O)c1c(NC(=O)C(C)C)sc2c1CCN(C(C)=O)C2 (stereo unspecified)	10.6%	10 µM	–
CCOC(=O)c1c(NC(=O)C(C)C)sc2c1CCN(C(C)=O)C2	49.1%	–	–
CCOC(=O)c1c(NC(=O)N2CCOCC2)sc2c1CCN(C(C)=O)C2	90.3%	1 µM	–
CCOC(=O)c1c(NC(=O)C(C)C)sc2c1CCOC2	17.6%	10 µM	–
CCOC(=O)c1c(NC(=O)N2CCSCC2)sc2c1CCN(C(C)=O)C2	20%	12 µM	–
CCOC(=O)c1c(N(C)C(=O)CC)sc2c1CCN(C(C)=O)C2	81%	9 µM	–
CC(=O)N1CCc2c(sc(NC(=O)C(C)C)c2C(N)=O)C1	–	> 100 µM	–
CCOC(=O)c1c(NC(=O)CC)sc2c1CCN(CC)C2	9.2%	22 µM	–
CCOC(=O)c1c(NC(=O)C(C)C)sc2c1CCCC2	1.8%	28 µM	–
CCCC(=O)Nc1sc2c(c1C(=O)OCC)CCN(C(C)=O)C2	33.3%	28 µM	–
CCCCC(=O)Nc1sc2c(c1C(=O)OCC)CCN(C(C)=O)C2	42.9%	18 µM	–
CCOC(=O)c1c(NC(=O)N2CCSC2)sc2c1CCN(CC)C2	5.4%	6 µM	–
CCOC(=O)c1c(NC(=O)N(CC)CC)sc2c1CCN(C(C)=O)C2	92.3%	6.2 µM	Paw edema [3]: 42.5%; Femur weight [4]: 110%; GAG [5]: 119%

Compound	inhibition in vivo at 50 mg/kg [1]	IC50 [2]	other results
COc1ccc2c(c1)c(CC(=O)O)c(C)n2C(=O)c1ccc(Cl)cc1 [INDOMETHACIN]	–	–	Paw edema [6]: 72.1%; GAG [7]: 7.4%; Femur weight [8]: 20%
CCOC(=O)c1c(NC(=O)N2CCNCC2)sc2c1CCN(C(C)=O)C2	51.4%	16 µM	–
CCOC(=O)c1c(NC(=O)C(C)C)sc2c1CCN(Cc1ccccc1)C2	–	42 µM	–
CCOC(=O)Nc1sc2c(c1C(=O)OCC)CCN(C(C)=O)C2	57.1%	20 µM	–
CCOC(=O)c1c(NC(=O)N2CCN(C=O)CC2)sc2c1CCN(C(C)=O)C2	41.9%	22 µM	–
CCOC(=O)c1c(NC(=O)N2CCN(C)CC2)sc2c1CCN(C(C)=O)C2	40.7%	17 µM	–
CCOC(=O)c1c(NC(=O)C(C)(C)C)sc2c1CCN(C(C)=O)C2	63.7%	11 µM	–
CC(=O)N1CCc2c(sc(NC(=O)C(C)C)c2C(=O)O)C1	–	> 100 µM	–
CCOC(=O)c1c(NC(=O)NN2CCOCC2)sc2c1CCN(C(C)=O)C2	22.1%	12 µM	–
CCOC(=O)c1c(NC(C)=O)sc2c1CCN(C(C)=O)C2	78.4%	13 µM	–
CCOC(=O)c1c(NC(=O)CC)sc2c1CCN(C(C)=O)C2	90.1%	7.9 µM	–
CCNC(=O)Nc1sc2c(c1C(=O)OCC)CCN(C(C)=O)C2	17%	19 µM	–
CCOC(=O)c1c(NC(=O)CC(C)C)sc2c1CCN(C(C)=O)C2	33.1%	20 µM	–
CCOC(=O)c1c(NC(=O)OCCN2CCOCC2)sc2c1CCN(C(C)=O)C2	57.6%	13 µM	–
CCOC(=O)c1c(NC(=O)C(C)C)sc2c1CCN(C)C2	22.7%	32 µM	–
CC(=O)N1CCc2c(sc(NC(=O)C(C)C)c2C#N)C1	23.2%	22 µM	–
CCOC(=O)c1c(NC(=O)N2CCCCC2)sc2c1CCN(C(C)=O)C2	46.8%	13 µM	–
AURANOFIN	–	–	Femur weight [9]: 17%; GAG [10]: 73%; Paw edema [11]: -4.7%
CCOC(=O)c1c(NC(=O)C2CC2)sc2c1CCN(C(C)=O)C2	64.2%	–	–
CC(=O)N1CCc2c(sc(NC(=O)C(C)C)c2C(=O)OC(C)C)C1	42.1%	7.1 µM	–
CCOC(=O)c1c(NC(=O)C(C)C)sc2c1CCN(CC)C2	69.2%	15 µM	–
CCOC(=O)c1c(NC(=O)N(CC)CC)sc2c1CCN(CC)C2	–	2.2 µM	inhibition in vivo at 50 mg/kg [12]: 88.7%
